These are literature values, as cited in patent US20030004143A1, “Use of NSAIDs for prevention and treatment of cellular abnormalities of the female reproductive tract” (priority 2001, published 2003).

One data set has as its system OPC cell lines. The conditions noted are these: all OPC cell lines tested.

SMILES strings stand for the structures.

As to `O=C(c1ccccc1)c1ccc2n1CCC2C(=O)O` (stereo not shown) [ketorolac, (.+−.)5(benzoyl)-2,3-dihydro-1H-pyrrolizine-1carboxylic acid], in the data set with OPC, the “OPC growth in vivo” value was “reduced OPC growth in vivo”. In the data set on OPC cell lines, the IL-6 levels entry was “continuously and significantly decreased”; the IL-8 levels entry was “continuously and significantly decreased”; the PGE2 production result was “continuously and significantly decreased”.
